Laboratory results reported in article PMC4569258.

Legend:
[1] = molecular target: T1, glucocorticoid receptor (GR) (Homo sapiens, UniProt P04150); test: GR gene reporter assay in AZ-GR cells; type: cell-based; conditions: for IC50: in presence of DEX 100 nM
T1 sequence (P04150 1-777): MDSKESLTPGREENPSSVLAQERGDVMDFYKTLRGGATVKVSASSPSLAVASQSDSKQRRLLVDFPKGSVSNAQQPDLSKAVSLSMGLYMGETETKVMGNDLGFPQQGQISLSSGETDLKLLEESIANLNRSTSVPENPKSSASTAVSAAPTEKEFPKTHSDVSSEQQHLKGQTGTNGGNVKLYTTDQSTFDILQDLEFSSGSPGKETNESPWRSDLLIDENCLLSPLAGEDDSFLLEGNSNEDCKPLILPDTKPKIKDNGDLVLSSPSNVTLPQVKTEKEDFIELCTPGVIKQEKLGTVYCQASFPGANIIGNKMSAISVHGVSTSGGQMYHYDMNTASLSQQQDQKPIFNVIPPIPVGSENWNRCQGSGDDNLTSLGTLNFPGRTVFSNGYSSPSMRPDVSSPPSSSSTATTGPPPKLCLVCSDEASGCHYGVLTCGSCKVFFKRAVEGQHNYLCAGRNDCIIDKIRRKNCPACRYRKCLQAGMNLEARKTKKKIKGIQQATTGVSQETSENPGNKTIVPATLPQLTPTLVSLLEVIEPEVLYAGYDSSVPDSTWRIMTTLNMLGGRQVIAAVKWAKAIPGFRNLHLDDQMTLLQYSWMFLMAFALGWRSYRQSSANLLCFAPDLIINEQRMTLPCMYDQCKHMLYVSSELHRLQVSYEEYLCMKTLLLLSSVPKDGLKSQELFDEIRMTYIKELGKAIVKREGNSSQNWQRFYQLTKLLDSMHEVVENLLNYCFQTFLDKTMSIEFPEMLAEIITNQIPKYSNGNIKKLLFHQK
Procedure: Transcriptional activity of GR was assessed in human gene reporter cell line AZ-GR incubated for 24 h with tested compounds. […] The vehicle was DMSO (0.1% v/v). […] Treatments were performed in triplicates.

[2] = molecular target: T2, pregnane X receptor (PXR) (Homo sapiens, UniProt O75469); conditions: for effect on rifampicin-inducible PXR transcriptional activity, in words: antagonist mode, RIF 10 μM, 24 h; for rifampicin-inducible luciferase activity, minimum of U-shaped curve: with RIF 10 μM, concentrations range 10^−8 M-10^−6 M
T2 sequence (O75469 1-434): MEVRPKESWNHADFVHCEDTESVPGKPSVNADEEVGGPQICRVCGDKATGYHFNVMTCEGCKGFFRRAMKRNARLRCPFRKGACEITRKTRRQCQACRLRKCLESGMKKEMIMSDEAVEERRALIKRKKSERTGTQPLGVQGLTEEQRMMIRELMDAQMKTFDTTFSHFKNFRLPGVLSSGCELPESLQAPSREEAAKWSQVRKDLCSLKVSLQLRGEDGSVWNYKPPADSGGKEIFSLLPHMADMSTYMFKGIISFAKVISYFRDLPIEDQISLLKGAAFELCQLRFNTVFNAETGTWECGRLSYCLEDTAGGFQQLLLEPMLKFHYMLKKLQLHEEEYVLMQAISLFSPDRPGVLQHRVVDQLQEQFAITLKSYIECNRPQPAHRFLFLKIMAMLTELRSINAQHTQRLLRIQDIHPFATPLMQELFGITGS

[3] = molecular target: T3, aryl hydrocarbon receptor (AhR) (Homo sapiens, UniProt P35869); test: cell-based
T3 sequence (P35869 11-848): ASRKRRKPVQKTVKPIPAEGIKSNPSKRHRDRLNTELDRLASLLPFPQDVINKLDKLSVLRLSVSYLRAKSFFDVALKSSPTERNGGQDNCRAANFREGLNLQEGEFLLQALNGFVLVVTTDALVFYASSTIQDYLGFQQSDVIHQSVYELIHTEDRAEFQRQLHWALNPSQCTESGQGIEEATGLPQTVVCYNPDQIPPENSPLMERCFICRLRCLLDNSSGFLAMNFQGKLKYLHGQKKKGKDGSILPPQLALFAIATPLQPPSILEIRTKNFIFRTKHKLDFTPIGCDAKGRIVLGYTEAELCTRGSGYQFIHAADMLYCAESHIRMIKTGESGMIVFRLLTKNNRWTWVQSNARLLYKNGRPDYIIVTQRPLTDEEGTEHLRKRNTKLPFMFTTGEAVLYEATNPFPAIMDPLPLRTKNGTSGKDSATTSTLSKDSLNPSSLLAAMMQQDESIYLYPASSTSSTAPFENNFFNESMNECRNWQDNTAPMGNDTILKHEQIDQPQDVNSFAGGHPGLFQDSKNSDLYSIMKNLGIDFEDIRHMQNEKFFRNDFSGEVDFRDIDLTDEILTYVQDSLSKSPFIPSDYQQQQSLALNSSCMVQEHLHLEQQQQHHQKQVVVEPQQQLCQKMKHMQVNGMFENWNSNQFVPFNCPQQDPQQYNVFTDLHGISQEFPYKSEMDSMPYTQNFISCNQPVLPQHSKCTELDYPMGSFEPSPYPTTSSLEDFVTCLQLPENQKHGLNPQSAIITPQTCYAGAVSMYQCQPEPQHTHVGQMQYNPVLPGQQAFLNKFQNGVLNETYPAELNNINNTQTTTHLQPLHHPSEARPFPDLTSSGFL
Procedure: (§5) A stably transfected gene reporter cell line AZ-AHR, derived from human hepatoma HepG2 cells transfected with a construct containing several AhR binding sites upstream of a luciferase reporter gene, was used for assessment of AhR transcriptional activity [20].
(§6) Transcriptional activity of AhR was assessed in human gene reporter cell line AZ-AHR incubated for 24 h with tested compounds.
(§7) AZ-AHR cells were seeded in 96-well plates and stabilized for 16 h and then incubated for 24 h with enantiopure forms of atorvastatin, rosuvastatin and fluvastatin in concentration ranging from 10^−10 M to 10^−4 M in the absence (agonist mode–upper panels) or presence (antagonist mode–lower panels) of dioxin (TCDD; 5 nM). The vehicle was DMSO (0.1% v/v). After the treatments, cells were lysed and luciferase activity was measured. Treatments were performed in triplicates. Data are expressed as a fold induction of luciferase activity over control cells (agonist mode) or as a percentage of maximal activation attained by TCDD (antagonist mode). The values of EC50 and IC50 from n independent cell passages were calculated where appropriate and the average values are indicated in plots. Representative gene reporter assays are shown.

[4] = molecular target: T3, aryl hydrocarbon receptor (AhR); test: AhR gene reporter assay in AZ-AHR cells; conditions: for IC50: AhR antagonist IC50, antagonist mode, in presence of TCDD 5 nM; for IC50 / effect on AhR-dependent luciferase activity (agonist mode), in words: 24 h
Procedure: as §5, §6, §7

CYP1A1 mRNA = CYP1A1 mRNA (qRT-PCR) in primary human hepatocytes; type: cell-based; conditions: 5 nM
Procedure: (§1) Cells were cultured in serum-free medium.
(§2) Measurements were performed in triplicates.

CYP1A2 mRNA = CYP1A2 mRNA (qRT-PCR) in primary human hepatocytes; type: cell-based; conditions: 5 nM
Procedure: as §1, §2

CYP1A1 protein = CYP1A1 protein (Simple Western) in primary human hepatocytes; type: cell-based; conditions: 5 nM
Procedure: as §1

CYP1A2 protein = CYP1A2 protein (Simple Western) in primary human hepatocytes; type: cell-based; conditions: 5 nM
Procedure: as §1

[5] = MTT cytotoxicity test in AZ-AHR cells; type: cell-based; conditions: human
Procedure: (§3) Prior to gene reporter assays, we examined the cytotoxicity of tested compounds in AZ-AHR, AZ-GR and LS180 cell lines. For this purpose, the cells were incubated for 24 h with individual enantiomers of atorvastatin, fluvastatin and rosuvastatin at concentrations ranging from 100 pM to 100 μM. The vehicle was DMSO (0.1% v/v). After the treatment, a conventional MTT test was performed and the values of IC50 were calculated.
(§4) Fig 2 Cytotoxicity of statin enantiomers in human cancer cell lines. […] After the treatment, a conventional MTT test was performed and absorbance was measured at 540 nm. Treatments were performed in triplicates.

[6] = MTT cytotoxicity test in AZ-GR cells; type: cell-based; conditions: human, AZ-GR cells (HeLa-derived GR luciferase reporter cell line)
Procedure: as §3, §4

[7] = MTT cytotoxicity test in LS180 cells; type: cell-based; conditions: human, LS180 colon adenocarcinoma cells
Procedure: as §3, §4

| SMILES | IC50 ([1]; antagonist mode, 24 h) [µM] | effect on rifampicin-inducible PXR transcriptional activity, in words [2] | rifampicin-inducible luciferase activity, minimum of U-shaped curve [2] | EC50 [3] [µM] | IC50 [4] [µM] | effect on AhR-dependent luciferase activity (agonist mode), in words ([4]; agonist mode) | IC50 at 24 h [5] [µM] | IC50 at 24 h [6] [µM] | IC50 at 24 h [7] [µM] | further results |
| --- | --- | --- | --- | --- | --- | --- | --- | --- | --- | --- |
| CC(C)c1nc(N(C)S(C)(=O)=O)nc(-c2ccc(F)cc2)c1C=CC(O)CC(O)CC(=O)O (centres unmarked) [3S5S-rosuvastatin] | > 100 | U-shaped curve | 60 % of rifampicin value | 17.5 ± 0.4 | > 100 | dose-dependently increased luciferase activity | – | – | – | efficacy of AhR activation, % of induction attained by TCDD ([4]; agonist mode): about 0.1% |
| Clc1cc2c(cc1Cl)Oc1cc(Cl)c(Cl)cc1O2 [TCDD, 2,3,7,8-tetrachlorodibenzo-p-dioxin] | – | – | – | – | – | – | – | – | – | induction of CYP1A1 mRNA (CYP1A1 mRNA; culture HH59, 24 h): 98 fold; induction of CYP1A1 mRNA (CYP1A1 mRNA; culture HH61, 24 h): 339 fold; induction of CYP1A1 mRNA (CYP1A1 mRNA; culture HH63, 24 h): 278 fold; induction of CYP1A2 mRNA (CYP1A2 mRNA; culture HH59, 24 h): 110 fold; induction of CYP1A2 mRNA (CYP1A2 mRNA; culture HH61, 24 h): 143 fold; induction of CYP1A2 mRNA (CYP1A2 mRNA; culture HH63, 24 h): 45 fold; induction of CYP1A1 protein (CYP1A1 protein; culture HH59, 48 h): 35 fold; induction of CYP1A1 protein (CYP1A1 protein; culture HH61, 48 h): 220 fold; induction of CYP1A1 protein (CYP1A1 protein; culture HH63, 48 h): 35 fold; induction of CYP1A2 protein (CYP1A2 protein; culture HH59, 48 h): 19 fold; induction of CYP1A2 protein (CYP1A2 protein; culture HH61, 48 h): 83 fold; induction of CYP1A2 protein (CYP1A2 protein; culture HH63, 48 h): 50 fold; average induction of AhR-dependent luciferase activity ([4]; 5 nM, eight consecutive passages, vs DMSO-treated cells): 1107 fold |
| CC(C)c1c(C(=O)Nc2ccccc2)c(-c2ccccc2)c(-c2ccc(F)cc2)n1CC[C@@H](O)C[C@@H](O)CC(=O)O [3R5R-atorvastatin] | – | – | – | – | – | – | – | – | – | effect on dexamethasone-inducible transcriptional activity of GR, in words ([1]; antagonist mode, DEX 100 nM, 24 h): decreased |
| CC(C)c1nc(N(C)S(C)(=O)=O)nc(-c2ccc(F)cc2)c1C=CC(O)CC(O)CC(=O)O (centres unmarked) [3R5R-rosuvastatin, 3R5R- rosuvastatin] | > 100 | U-shaped curve | 60 % of rifampicin value | > 100 | > 100 | – | > 100 | > 100 | > 100 | EC50 ([1]; agonist mode, 24 h): > 100 µM |
| C[C@@H]1C[C@H]2[C@@H]3CCC4=CC(=O)C=C[C@]4(C)[C@@]3(F)[C@@H](O)C[C@]2(C)[C@@]1(O)C(=O)CO [dexamethasone] | – | – | – | – | – | – | – | – | – | average induction of GR-dependent luciferase activity ([1]; 100 nM, eight consecutive passages, vs DMSO-treated cells): 32 fold |
| CC(C)n1c(C=CC(O)CC(O)CC(=O)O)c(-c2ccc(F)cc2)c2ccccc21 (centres unmarked) [3S5S-fluvastatin] | – | – | – | 14.7 ± 0.9 | > 100 | slightly increased luciferase activity | > 100 | > 100 | > 100 | efficacy: average induction of PXR luciferase activity ([2]; 100 μM concentration, agonist mode): around 3 fold |
